Patent US6916834B2, “Preparations and use of an Ah receptor ligand, 2-(1′H-indole-3′-carbonyl)-thiazole-4-carboxylic acid methyl ester” (Wisconsin Alumni Research Foundation, priority 2001, dated 2005)

Tests used:
Ah receptor [1] = biological target: T1, Ah receptor (Mus musculus, UniProt P30561); test: AhR ligand activity assay (luciferase reporter gene, H1L1.1C2 ligand reporting cells); assay type: cell-based
T1 construct: endogenous in cells; host or cells: H1L1.1C2 AhR ligand reporting cells
T1 sequence (P30561 10-848): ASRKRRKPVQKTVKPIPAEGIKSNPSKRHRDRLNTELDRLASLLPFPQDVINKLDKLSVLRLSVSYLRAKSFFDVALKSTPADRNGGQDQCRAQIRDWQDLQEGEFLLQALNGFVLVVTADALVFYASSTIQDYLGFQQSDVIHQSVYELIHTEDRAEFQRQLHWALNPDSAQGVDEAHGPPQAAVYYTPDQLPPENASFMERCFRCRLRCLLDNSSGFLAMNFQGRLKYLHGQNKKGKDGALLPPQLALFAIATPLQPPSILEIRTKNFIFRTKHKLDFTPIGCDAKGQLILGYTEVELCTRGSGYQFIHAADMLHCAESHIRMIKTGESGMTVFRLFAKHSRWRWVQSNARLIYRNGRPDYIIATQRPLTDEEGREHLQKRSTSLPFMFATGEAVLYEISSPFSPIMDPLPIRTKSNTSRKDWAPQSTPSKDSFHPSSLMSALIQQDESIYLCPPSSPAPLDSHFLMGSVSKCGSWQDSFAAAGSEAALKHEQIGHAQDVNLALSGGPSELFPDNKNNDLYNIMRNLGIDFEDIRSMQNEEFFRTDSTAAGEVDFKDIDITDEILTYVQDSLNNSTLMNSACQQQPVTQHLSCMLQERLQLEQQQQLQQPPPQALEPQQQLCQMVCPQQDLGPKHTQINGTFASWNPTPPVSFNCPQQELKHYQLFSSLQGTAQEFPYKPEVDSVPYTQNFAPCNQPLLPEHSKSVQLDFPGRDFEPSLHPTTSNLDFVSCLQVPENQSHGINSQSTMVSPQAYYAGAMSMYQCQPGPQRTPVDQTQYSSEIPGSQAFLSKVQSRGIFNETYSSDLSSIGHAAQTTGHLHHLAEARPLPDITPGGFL
Procedure: The ligand activity is determined most preferably by an activity assay described below. In brief, the ligand extracts are added to Ah receptor-containing ligand reporter cells. These cells are then incubated for 4 hours and the cells are lysed to release the formed luciferase. This enzyme typically is measured according to the kit sold by Promega (Madison, Wis., USA.). Luciferase activity is measured by light emission recorded by a luminometer. The luminometer readings are taken after a substrate solution is injected into a well.
The cell line H1L1.1C2 was maintained in a culture medium (DMEM+10% FBS) with G418 at a concentration of 400 μg/ml and incubated under an atmosphere of 37° C., 6% CO2, and 100% humidity. A 96 well sterile cell culture plate with about 30,000 cells per well in 200 μl of the culture medium without G418 was prepared and incubated for at least 12 hours before being dosed for ligand activity assay.
The solvents from the ligand activities were evaporated and the activities were reconstituted in DMSO and 1 μl of this solution was used to dose the ligand reporting cells in a well with 200 μl of culture medium. One row of the reporting cells in each assay plate was dosed with 1 μl of the DMSO solutions of a set of βNF standards to generate a standard dose response curve. The dosed cells were incubated for 6 hours under the same environment as they were maintained. The cells were washed twice with a 1×PBS (pH 6.9) after the incubation and the culture wells were scanned under an inverted microscope to detect any obvious cell number change due to dosing. The cells were lysed by adding 50 μl of a 1×cell lysis reagent (Promega, Madison, Wis., USA) and 10 μl of the lysate from each well were transferred into a corresponding well of a Microlite 2 plate (Dynex Technologies Inc., Chantilly, Va., USA) for luminometer reading. A MLX Microtiter Plate Luminometer (Dynex Technologies Inc.) was programmed to inject 50 μl of a luciferase substrate solution (Promega) into a well, read the light intensities in Relative Light Units (RLU's) generated by the luciferase reaction for 5 seconds after a one second delay following the injection, and take the average of the 5 second readings as a final RLU.
Dose response curves of RLU's vs. doses of βNF standards (ng in each assay well) from each plate were plotted and the RLU's generated by the samples were converted into βNF equivalent (BEQ) as ligand activity by consulting the βNF dose response curve generated from the same plate. Data were reported as ligand activity (in BEQ) vs. treatments or fractions from a purification procedure.

[2] = Solubility and stability characterisation of the ligand preparation; assay type: physicochemical
Procedure: The preferred ligand preparation described below can be characterized by its solubility. The ligand is extractable from tissue by 80% methanol/20% water. After the boiling and acid treatment, the ligand is extractable in chloroform.
The ligand preparation is unstable in base but stable in up to two normal acid for at least 24 hours. The preparation is stable to heating at 37° C. overnight (16 hours) and at 100° C. for 24 hours.

Ah receptor [3] = biological target: T1, Ah receptor; test: Reduction with NaBH4, phases assayed for biological activity; assay type: cell-based; conditions: saturated NaBH4 in ethanol, overnight, room temperature; data not shown
Procedure: Specified quantity of the compound was pipetted into a glass via for reaction and the solvents were evaporated. A saturated solution (100 μl) of NaBH4 in ethanol (200 proof, Aaper Alcohol and Chemical Co. Shelbyville, Ky., U.S.A.) was added to each reaction tube. The mixture was incubated overnight at room temperature and stopped by adding 200 μl of water. The reactions were extracted with 200 μl of chloroform twice and the chloroform phases were pooled. The solvents from both aqueous and chloroform phases were evaporated and both phases were assayed for biological activities. The chloroform phase was analyzed with electron impact mass spectroscopy as was a blank treated identically but containing no isolate.

Ah receptor [4] = biological target: T1, Ah receptor; test: Heat treatment followed by ligand activity assay; assay type: cell-based; conditions: 100° C. water bath, 30 minutes
Procedure: The methanolic extracts either in methanol or DMSO in a cleaned glass vials were heated in a 100° C. water bath for 30 minutes and the vials were cooled to room temperature. The extracts in the solvents were directly assayed as they were to determine the activities.

Ah receptor [5] = biological target: T1, Ah receptor; test: Base treatment followed by ligand activity assay; assay type: cell-based; conditions: 0.1 N KOH, 37° C., overnight
Procedure: An aliquot of methanolic extracts of about 4 ng BEQ was transferred into a cleaned glass vial and the solvents were evaporated. A solution (200 ul) of 0.1 N KOH in water was added into the vial. The vials were incubated at 37° C. overnight. After the incubation, the tubes were cooled down and neutralized slowly with HCl. The treatment mixtures were extracted with 200 μl of chloroform. Chloroform and aqueous phases were separated and the solvents were evaporated. DMSO (10 μl) was added to each tube for activity assay. βNF and blank extracts were treated the same way as for the sample.

Ah receptor [6] = biological target: T1, Ah receptor; test: Base hydrolysis and methylation, products assayed for biological activity; assay type: cell-based; conditions: same manipulations as for the ligand
Procedure: To 2 μl of methanol with 3 ng BEQ of the sample, 38 μl of methanol of 10 μl of a 0.5 mm KOH in water were added and mixed. The reaction was incubated at 37° C. for 2 hours and stopped by adding 10 μl of 0.5 mmolar HCl in water to bring pH to around 5.0. To the reaction mix, 30 μl of water, 10 μl of methanol, and 50 μl of chloroform were added and mixed. The chloroform phase was separated and kept after centrifugation of the mixture. The chloroform extraction was repeated and the two chloroform phases were pooled. The chloroform phase was split into two parts, one for biological assay and the other for methylation. The same manipulations were performed for 3 ng of βNF in 2 μl of methanol and 2 μl of methanol as controls.
The solvents were evaporated and the products were assayed side by side with the hydrolysis products without methylation.

## COc1cc(-c2cc(=O)c3ccccc3o2)ccc1[N+](=O)[O-] [3′-methoxy-4′-nitroflavone]
Ah receptor [1]; AhR antagonist, data not shown
  antagonism of the reporter gene response to ITE: block the reporter gene response to the compound in a dose dependent fashion

## COC(=O)c1csc(C(=O)c2c[nH]c3ccccc23)n1 [ITE, 2-(1′-H-indole-3′-carbonyl)-thiazole-4-carboxylic acid methyl ester]
[2]
  extractability from tissue by 80% methanol/20% water: extractable
  stability in base: unstable
  time stable in up to two normal acid: at least 24 hours
[2]; 24 hours
  stability to heating at 100° C.: stable
[2]; after the boiling and acid treatment
  extractability in chloroform: extractable
[2]; overnight (16 hours)
  stability to heating at 37° C.: stable
Ah receptor [3]
  biological activity after reduction with NaBH4: completely destroyed the biological activity
Ah receptor [1]
  biological activity of synthetic compound compared with the isolate: the same biological activity
Ah receptor [1]; dose response curves after 4 hours of incubation, FIG. 7B
  reporter gene potency relative to βNF: about five

## O=c1cc(-c2ccccc2)oc2ccc3ccccc3c12 [βNF, β-Naphthoflavone]
Ah receptor [4]
  response of ligand activity to heat treatment: did not respond
Ah receptor [5]
  response of ligand activity to base treatment: did not respond
Ah receptor [6]
  change in biological activity after hydrolysis and methylation manipulations: no change
Ah receptor [1]; 0.05 ng of βNF per assay well (200 μl medium), 96 well format
  induction over vehicle control: two to three
Ah receptor [1]; per assay well, 96 well format
  amount generating a distinguishable signal: 0.01 ng
